Where a name gives a salt, the structure may show the parent alone.

In the first test the target is hNav1.7 (Homo sapiens (Human), UniProt Q15858). In words: Tritiated sulfonamide competitive binding to membranes from cells expressing hNav1.7 and the β1 subunit.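 Further: Filter-bound radioactivity counted by liquid scintillation, nonspecific binding defined with excess unlabelled ligand, IC50 fitted to percent inhibition of specific binding.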
Chain of hNav1.7 (Q15858 other isoform, or with tags, fused parts or gaps): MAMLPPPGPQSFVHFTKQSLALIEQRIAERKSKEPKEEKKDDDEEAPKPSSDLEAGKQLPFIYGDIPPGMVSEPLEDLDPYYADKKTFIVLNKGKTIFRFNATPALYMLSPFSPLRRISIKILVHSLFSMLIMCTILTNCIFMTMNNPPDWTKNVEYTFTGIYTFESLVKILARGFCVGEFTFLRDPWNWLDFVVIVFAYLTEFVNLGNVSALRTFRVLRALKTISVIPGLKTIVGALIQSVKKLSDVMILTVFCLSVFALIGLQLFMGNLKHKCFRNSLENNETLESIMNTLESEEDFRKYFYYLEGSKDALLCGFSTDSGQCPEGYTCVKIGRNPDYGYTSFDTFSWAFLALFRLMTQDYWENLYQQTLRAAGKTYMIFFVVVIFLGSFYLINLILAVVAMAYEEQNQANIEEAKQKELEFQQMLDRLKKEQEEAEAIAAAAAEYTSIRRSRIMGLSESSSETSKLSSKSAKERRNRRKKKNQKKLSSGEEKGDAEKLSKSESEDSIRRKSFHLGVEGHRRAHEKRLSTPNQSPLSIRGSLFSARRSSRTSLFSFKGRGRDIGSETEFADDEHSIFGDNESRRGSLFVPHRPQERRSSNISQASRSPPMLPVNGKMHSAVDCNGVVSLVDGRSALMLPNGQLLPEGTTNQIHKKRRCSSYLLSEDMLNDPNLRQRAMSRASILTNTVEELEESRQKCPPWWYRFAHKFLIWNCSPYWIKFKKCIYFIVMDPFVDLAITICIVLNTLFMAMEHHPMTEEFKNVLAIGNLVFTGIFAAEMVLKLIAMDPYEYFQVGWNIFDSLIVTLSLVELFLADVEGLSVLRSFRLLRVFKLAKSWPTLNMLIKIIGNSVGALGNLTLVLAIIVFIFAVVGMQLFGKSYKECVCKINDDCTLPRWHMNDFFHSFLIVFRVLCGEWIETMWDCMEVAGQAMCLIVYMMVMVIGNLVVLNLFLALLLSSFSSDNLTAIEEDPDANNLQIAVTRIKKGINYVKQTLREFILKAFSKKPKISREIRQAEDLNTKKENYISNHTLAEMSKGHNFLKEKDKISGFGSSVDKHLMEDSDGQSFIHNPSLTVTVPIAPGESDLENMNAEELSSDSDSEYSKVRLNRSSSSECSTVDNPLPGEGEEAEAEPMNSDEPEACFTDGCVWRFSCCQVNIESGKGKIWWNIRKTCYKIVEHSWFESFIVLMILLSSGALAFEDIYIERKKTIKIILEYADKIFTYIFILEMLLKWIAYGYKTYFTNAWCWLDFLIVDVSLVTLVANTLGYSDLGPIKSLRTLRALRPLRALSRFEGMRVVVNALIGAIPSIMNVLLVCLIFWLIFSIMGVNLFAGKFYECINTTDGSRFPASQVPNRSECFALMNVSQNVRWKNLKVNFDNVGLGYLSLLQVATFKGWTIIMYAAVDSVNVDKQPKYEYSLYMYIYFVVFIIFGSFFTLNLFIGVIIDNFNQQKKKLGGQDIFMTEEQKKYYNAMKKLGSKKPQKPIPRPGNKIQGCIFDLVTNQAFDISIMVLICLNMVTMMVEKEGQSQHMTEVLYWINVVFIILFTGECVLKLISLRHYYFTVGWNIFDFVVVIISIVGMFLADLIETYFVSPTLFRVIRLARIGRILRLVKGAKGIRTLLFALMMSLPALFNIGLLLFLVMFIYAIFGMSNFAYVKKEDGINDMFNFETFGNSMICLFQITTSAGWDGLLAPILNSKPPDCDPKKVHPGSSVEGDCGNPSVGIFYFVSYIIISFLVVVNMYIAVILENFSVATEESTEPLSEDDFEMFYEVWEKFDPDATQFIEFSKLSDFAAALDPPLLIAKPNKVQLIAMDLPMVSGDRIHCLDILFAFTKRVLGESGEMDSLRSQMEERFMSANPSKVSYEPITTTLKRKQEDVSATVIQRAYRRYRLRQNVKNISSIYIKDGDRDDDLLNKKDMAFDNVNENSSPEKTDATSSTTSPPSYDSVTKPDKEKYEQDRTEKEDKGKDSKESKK
Chain of hNav1.7 (Q07699 19-218 partner): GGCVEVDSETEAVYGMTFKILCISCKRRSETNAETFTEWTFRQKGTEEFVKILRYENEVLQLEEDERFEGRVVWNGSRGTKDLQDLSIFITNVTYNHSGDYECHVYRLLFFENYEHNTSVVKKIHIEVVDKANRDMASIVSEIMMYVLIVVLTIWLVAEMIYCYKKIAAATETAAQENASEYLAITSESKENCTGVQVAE
Conditions: not given
`CS(=O)(=O)NC(=O)c1cc(C2CC2)c(CN2CCC(S(=O)(=O)c3cc(Cl)cc(Cl)c3)CC2)cc1F` [Example 532, 5-cyclopropyl-4-((4-((3,5-dichlorophenyl)sulfonyl)piperidin-1-yl)methyl)-2-fluoro-N-(methylsulfonyl)benzamide, trifluoroacetic acid salt] displayed an IC50 of 220 nM.

The molecule `C[C@H](c1cc(Cl)cc(Cl)c1)N1CCN(Cc2cc(F)c(C(=O)NS(=O)(=O)C3CC3)cc2C2CC2)C[C@@H]1C` [Example 566, 5-cyclopropyl-N-(cyclopropylsulfonyl)-4-(((S)-4-((R)-1-(3,5-dichlorophenyl)ethyl)-3-methylpiperazin-1-yl)methyl)-2-fluorobenzamide] showed an IC50 of 2.7 nM.

In turn, `O=C(NS(=O)(=O)C1CC1)c1cc(C2CC2)c(CN2CCC(Oc3ccc(C(F)(F)F)cc3)CC2)cc1F` [Example 500, 5-cyclopropyl-N-(cyclopropylsulfonyl)-2-fluoro-4-((4-(4-(trifluoromethyl)phenoxy)piperidin-1-yl)methyl)benzamide] showed an IC50 of 7.8 nM.

Molecule `CS(=O)(=O)NC(=O)c1cc(C2CC2)c(CN2CCC(CF)(c3ccc(F)cc3)CC2)cc1F` [Example 513, 5-cyclopropyl-2-fluoro-4-((4-(fluoromethyl)-4-(4-fluorophenyl)piperidin-1-yl)methyl)-N-(methylsulfonyl)benzamide, trifluoroacetic acid salt] displayed an IC50 of 69.8 nM.

As to `CS(=O)(=O)NC(=O)c1cc(C2CC2)c(O[C@@H]2CCCN(Cc3c(Cl)cccc3Cl)C2)cc1F` [Example 10, (R)-5-cyclopropyl-4-((1-(2,6-dichlorobenzyl)piperidin-3-yl)oxy)-2-fluoro-N-(methylsulfonyl)benzamide], the IC50 is 4.1 nM.

The test is the same for the next values; noted with them: read-out: Ligand Binding Assay; 100 pM [3H]compound, membranes with hNav1.7 and β1 subunit, 18 h, room temperature.
Consider `CCS(=O)(=O)NC(=O)c1cc(C2CC2)c(OCC2CCN(C(C)c3cc(Cl)cc(Cl)c3)CC2)cc1F` (stereo not drawn) [Example 101, 5-Cyclopropyl-4-((1-(1-(3,5-dichlorophenyl)ethyl)piperidin-4-yl)methoxy)-N-(ethylsulfonyl)-2-fluorobenzamide], for which the IC50 worked out at 3.76 nM.

As to `CS(=O)(=O)NC(=O)c1cc(C2CC2)c(OCC2CCN([C@@H]3c4ccccc4C[C@H]3O)CC2)cc1F` [Example 200, 5-Cyclopropyl-2-fluoro-4-((1-((1R,2R)-2-hydroxy-2,3-dihydro-1H-inden-1-yl)piperidin-4-yl)methoxy)-N-(methylsulfonyl)benzamide], the IC50 amounted to 9400 nM.

Consider `CS(=O)(=O)NC(=O)c1cc(C2CC2)c(OCC2CN(Cc3ccc(Cl)c(F)c3)C2)cc1F` [Example 133, 4-((1-(4-Chloro-3-fluorobenzyl)azetidin-3-yl)methoxy)-5-cyclopropyl-2-fluoro-N-(methylsulfonyl)benzamide], for which the IC50 came out at 118 nM.

Consider `C[C@H]1CC[C@@H](Oc2cc(F)c(C(=O)NS(=O)(=O)C3CC3)cc2C2CC2)CN1Cc1ccc(F)cc1Cl` [Example 326, 4-(((3R,6S)-1-(2-chloro-4-fluorobenzyl)-6-methylpiperidin-3-yl)oxy)-5-cyclopropyl-N-(cyclopropylsulfonyl)-2-fluorobenzamide], for which the IC50 amounted to 2.9 nM.

Take `C[C@H](c1ccc(F)cc1Cl)N1CCC[C@@H](Oc2cc(F)c(C(=O)NS(C)(=O)=O)cc2C2CC2)C1` [Example 296, 4-(((R)-1-((R)-1-(2-chloro-4-fluorophenyl)ethyl)piperidin-3-yl)oxy)-5-cyclopropyl-2-fluoro-N-(methylsulfonyl)benzamide]: the IC50 was determined as 8.1 nM.

`CS(=O)(=O)NC(=O)c1cc(C2CC2)c(O[C@@H]2CCCN(Cc3cc(Cl)cc(OC(F)(F)F)c3)C2)cc1F` [Example 422, (R)-4-((1-(3-chloro-5-(trifluoromethoxy)benzyl)piperidin-3-yl)oxy)-5-cyclopropyl-2-fluoro-N-(methylsulfonyl)benzamide, trifluoroacetic acid salt]: the IC50 is 1.3 nM.

As to `CS(=O)(=O)NC(=O)c1cc(C2CC2)c(OCC2CN([C@@H](c3ccccc3)c3ccncc3)C2)cc1F` [Example 152, (S)-5-Cyclopropyl-2-fluoro-N-(methylsulfonyl)-4-((1-(phenyl(pyridin-4-yl)methyl)azetidin-3-yl)methoxy)benzamide], the IC50 is 443 nM.

In the case of `CCC(c1cc(Cl)cc(Cl)c1)N1CC(COc2cc(F)c(C(=O)NS(C)(=O)=O)cc2C2CC2)C1` (stereo not drawn) [Example 158, 5-Cyclopropyl-4-((1-(1-(3,5-dichlorophenyl)propyl)azetidin-3-yl)methoxy)-2-fluoro-N-(methylsulfonyl)benzamide], the IC50 stood at 12.3 nM.

For the molecule `CS(=O)(=O)NC(=O)c1cc(C2CC2)c(OCC2CCN(Cc3cc(C(F)(F)F)cc(C4CC4)n3)CC2)cc1F` [Example 306, 5-cyclopropyl-4-((1-((6-cyclopropyl-4-(trifluoromethyl)pyridin-2-yl)methyl)piperidin-4-yl)methoxy)-2-fluoro-N-(methylsulfonyl)benzamide], the IC50 turned out to be 6 nM.

As for `CS(=O)(=O)NC(=O)c1cc(C2CC2)c(OCC2CCN(Cc3cccc(F)c3)CC2)cc1F` [Example 88, 4-((1-(3-Fluorobenzyl)piperidin-4-yl)methoxy)-5-cyclopropyl-2-fluoro-N-(methylsulfonyl)benzamide], the IC50 turned out to be 92.8 nM.

On to `CCS(=O)(=O)NC(=O)c1cc(C2CC2)c(OCC2CCN([C@H](C)c3ccc(F)cc3Cl)CC2)cc1F` (single isomer, unassigned) [Example 246], for which the IC50 was found to be 7.7 nM.

Regarding `O=C(NS(=O)(=O)C1CC1)c1cc(C2CC2)c(CN2CCO[C@H](Cc3ccc(F)cc3Cl)C2)cc1F` [Example 467, (R)-4-((2-(2-chloro-4-fluorobenzyl)morpholino)methyl)-5-cyclopropyl-N-(cyclopropylsulfonyl)-2-fluorobenzamide, trifluoroacetic acid salt], the IC50 is 4.3 nM.

On to `COC[C@@](C)(c1cc(Cl)cc(Cl)c1)N1CCC(COc2cc(F)c(C(=O)NS(C)(=O)=O)cc2C2CC2)CC1` (single isomer, unassigned) [Example 201], for which the IC50 turned out to be 5 nM.

For `O=C(NS(=O)(=O)C1CC1)c1cc(C2CC2)c(O[C@@H]2CCCN(c3ccc(C(F)(F)F)cn3)C2)cc1F` [Example 491, (R)-5-cyclopropyl-N-(cyclopropylsulfonyl)-2-fluoro-4-((1-(5-(trifluoromethyl)pyridin-2-yl)piperidin-3-yl)oxy)benzamide, trifluoroacetic acid salt], the IC50 came to 28.3 nM.

Consider `CS(=O)(=O)NC(=O)c1cc(C2CC2)c(OCC2CCN(S(=O)(=O)c3ccc4ccccc4c3)CC2)cc1F` [Example 388, 5-cyclopropyl-2-fluoro-N-(methylsulfonyl)-4-((1-(naphthalen-2-ylsulfonyl)piperidin-4-yl)methoxy)benzamide], for which the IC50 amounted to 16.3 nM.

Consider `CS(=O)(=O)NC(=O)c1cc(C2CC2)c(OCC2CCN(C(=O)c3ccccc3)CC2)cc1F` [Example 197, 4-((1-Benzoylpiperidin-4-yl)methoxy)-5-cyclopropyl-2-fluoro-N-(methylsulfonyl)benzamide], for which the IC50 is 3200 nM.

Consider `CS(=O)(=O)NC(=O)c1cc(C2CC2)c(O[C@@H]2CCCN(CC3(C(F)(F)F)CCCC3)C2)cc1F` [Example 327, (R)-5-cyclopropyl-2-fluoro-N-(methylsulfonyl)-4-((1-((1-(trifluoromethyl)cyclopentyl)methyl)piperidin-3-yl)oxy)benzamide], for which the IC50 was 2.7 nM.

`COc1ccc(CN2CCC[C@@H](Oc3cc(F)c(C(=O)NS(=O)(=O)C4CC4)cc3C3CC3)C2)cc1F` [Example 313, (R)-5-cyclopropyl-N-(cyclopropylsulfonyl)-2-fluoro-4-((1-(3-fluoro-4-methoxybenzyl)piperidin-3-yl)oxy)benzamide]: the IC50 was 9.1 nM.

Turning to `Cc1cc(C(=O)NS(C)(=O)=O)c(F)cc1OCC1CCN([C@@H](C)c2cc(Cl)cc(Cl)c2)CC1` [Example 360, (S)-4-((1-(1-(3,5-dichloro)ethyl)piperidin-4-yl)methoxy)-2-fluoro-5-methyl-N-(methylsulfonyl)benzamide, trifluoroacetic acid], the IC50 came out at 12.8 nM.

As for `CCS(=O)(=O)NC(=O)c1cc(C2CC2)c(OCC2CCN([C@](C)(COC)c3cc(Cl)cc(Cl)c3)CC2)cc1F` (single isomer, unassigned) [Example 203], the IC50 turned out to be 3.6 nM.

For the molecule `CS(=O)(=O)NC(=O)c1cc(C2CC2)c(OC[C@@H]2C[C@H]3CC[C@@H](C2)N3Cc2cc(C(F)(F)F)cc(Cl)c2F)cc1F` [Example 398, 4-(((1R,3S,5S)-8-(3-chloro-2-fluoro-5-(trifluoromethyl)benzyl)-8-azabicyclo[3.2.1]octan-3-yl)methoxy)-5-cyclopropyl-2-fluoro-N-(methylsulfonyl)benzamide, trifluoroacetic acid salt], the IC50 stood at 5.1 nM.

As to `O=C(NS(=O)(=O)N1CC(F)C1)c1cc(C2CC2)c(OC2CC3(C2)CN(Cc2ccc(F)cc2Cl)C3)cc1F` [Example 321, 4-((2-(2-chloro-4-fluorobenzyl)-2-azaspiro[3.3]heptan-6-yl)oxy)-5-cyclopropyl-2-fluoro-N-((3-fluoroazetidin-1-yl)sulfonyl)benzamide], the IC50 amounted to 191 nM.

For the molecule `CS(=O)(=O)NC(=O)c1cc(C2CC2)c(OCC2CCN(Cc3cc(Cl)cc(OC(F)(F)F)c3)CC2)cc1F` [Example 136, 4-((1-(3-Chloro-5-(trifluoromethoxy)benzyl)piperidin-4-yl)methoxy)-5-cyclopropyl-2-fluoro-N-(methylsulfonyl)benzamide], the IC50 was determined as 1.88 nM.

With `COC[C@H](c1cccc(Cl)c1)N1CCC(COc2cc(F)c(C(=O)NS(C)(=O)=O)cc2C2CC2)CC1` (single isomer, unassigned) [Example 263], the IC50 was 20 nM.

Turning to `CS(=O)(=O)NC(=O)c1cc(C2CC2)c(OCC2CCN(CC3(C(F)(F)F)CC3)CC2)cc1F` [Example 252, 5-cyclopropyl-2-fluoro-N-(methylsulfonyl)-4-((1-((1-(trifluoromethyl)cyclopropyl)methyl)piperidin-4-yl)methoxy)benzamide], the IC50 was 50 nM.
